In US20260078130A1, “NAMPT MODULATORS, PREPARATIONS, AND USES THEREOF” (SIRONAX LTD., priority 2022, published 2026):
Like-named read-outs stand apart in the source and are kept apart here.

Key:
[1] = target: T1, human enzyme NAMPT (full length) (Homo sapiens, UniProt P43490); assay: NMN fluorescence biochemical assay (stimulation of NMN synthesis by NAMPT); details: for EC50: concentration giving half-maximal activation, read-out: Enzymatic EC50; for Enzymatic Emax: fold change of maximal activation compared to DMSO
T1 construct: human enzyme NAMPT (full length)
In short: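 Full-length human NAMPT (100 nM) was preincubated 15 min at 37 °C with compound in 50 mM Tris-HCl pH 7.5, 10 mM MgCl2, 2 mM DTT, then reacted 1 h at 37 °C with 50 μM NAM, 100 μM PRPP, 4 mM ATP (stated solution concentrations). NMN was derivatised with acetophenone/KOH then formic acid and read at Ex/Em 382/445 nm; EC50 and Emax (fold over DMSO) reported.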

[2] = system: endogenous NAMPT in U2OS cells; assay: Cellular NAD+ modulation assay (NAD/NADH-Glo, U2OS cells); format: cell-based; details: Homo sapiens; for maximal fold induction: read-out: Cellular Emax
In short: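 Endogenous NAMPT stimulation in U2OS cells treated with compound dilution series for 24 h at 37 °C. Cells lysed with DTAB base, acid-treated 15 min at 60 °C, neutralized, NAD+ read by NAD/NADH-Glo luminescence after 40 min at room temperature. EC50 and Emax (fold over DMSO) derived.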

[3] = NMN synthesis by purified human NAMPT (100 nM)
[4] = 24 hours incubation with compound
[5] = NMN fluorescence assay, purified human NAMPT 100 nM
[6] = 24 hours incubation, cellular NAD+

T1 sequence (P43490 whole entry): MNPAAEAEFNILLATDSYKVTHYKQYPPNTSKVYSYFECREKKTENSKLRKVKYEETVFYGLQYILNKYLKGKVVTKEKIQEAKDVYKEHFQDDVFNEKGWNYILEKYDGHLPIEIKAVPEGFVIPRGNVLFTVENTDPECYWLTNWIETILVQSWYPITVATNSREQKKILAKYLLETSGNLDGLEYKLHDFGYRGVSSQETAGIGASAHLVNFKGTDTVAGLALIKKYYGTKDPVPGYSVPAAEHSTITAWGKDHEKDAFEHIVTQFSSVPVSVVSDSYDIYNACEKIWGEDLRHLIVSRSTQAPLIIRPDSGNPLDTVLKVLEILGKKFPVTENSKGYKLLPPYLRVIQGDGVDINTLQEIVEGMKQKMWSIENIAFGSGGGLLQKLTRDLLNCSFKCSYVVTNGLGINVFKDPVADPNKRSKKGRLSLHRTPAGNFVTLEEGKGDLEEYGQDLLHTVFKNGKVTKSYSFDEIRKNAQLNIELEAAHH

EC50 [1, 3]	Enzymatic Emax [1]	EC50 [2, 4]	EC50 [1, 5]	EC50 [2, 6]	SMILES	maximal fold induction [2, 4]	maximal fold induction [2, 6]
500 to 5000 nM	A (A>3)	500 to 5000 nM	–	–	CCc1ccc2c(c1)C(=O)N(Cc1ccc(O)cc1)C2=O [Compound 41, 5-ethyl-2-(4-hydroxybenzyl)isoindoline-1,3-dione]	1.2 to 1.5	–
500 to 5000 nM	A (A>3)	< 500 nM	–	–	CC(C)c1ccc2c(c1)C(=O)N(Cc1ccc(O)cc1)C2=O [Compound 26, 2-(4-hydroxybenzyl)-5-isopropylisoindoline-1,3-dione]	≤ 1.2	–
–	A (A>3)	–	≥ 5000 nM	< 500 nM	COc1ccc(CN2C(Cc3c(Cl)cnn3C)c3ccccc3S2(=O)=O)cc1 (stereo not drawn) [Compound 641, 3-((4-chloro-1-methyl-1H-pyrazol-5-yl)methyl)-2-(4-methoxybenzyl)-2,3-dihydrobenzo[d]isothiazole 1,1-dioxide]	–	1.2 to 1.5
–	B (3≥B>2)	–	< 500 nM	< 500 nM	CN(C)c1nn(C)c(CC2c3ccccc3C(=O)N2Cc2ccc3[nH]nnc3c2)c1Cl (stereo not drawn) [Compound 420, 2-((1H-benzo[d][1,2,3]triazol-5-yl)methyl)-3-((4-chloro-3-(dimethylamino)-1-methyl-1H-pyrazol-5-yl)methyl)isoindolin-1-one]	–	> 1.5
500 to 5000 nM	C (2≥C)	500 to 5000 nM	–	–	CC1c2cc(C3CCCC3)ccc2C(=O)N1Cc1ccc2[nH]c(=O)oc2c1 (single isomer, unassigned) [Compound 304]	1.2 to 1.5	–
–	A (A>3)	–	500 to 5000 nM	< 500 nM	COc1ccc(CN2C(=O)c3ccccc3C2Cc2c(Cl)c(Cl)nn2C)cc1 (stereo not drawn) [Compound 566, 3-((3,4-dichloro-1-methyl-1H-pyrazol-5-yl)methyl)-2-(4-methoxybenzyl)isoindolin-1-one]	–	> 1.5
–	A (A>3)	–	500 to 5000 nM	< 500 nM	Cn1nnc(Cl)c1CC1c2ccccc2C(=O)N1Cc1ccc2[nH]nnc2c1 (stereo not drawn) [Compound 334, 2-((1H-benzo[d][1,2,3]triazol-5-yl)methyl)-3-((4-chloro-1-methyl-1H-1,2,3-triazol-5-yl)methyl)isoindolin-1-one]	–	> 1.5
–	B (3≥B>2)	–	500 to 5000 nM	500 to 5000 nM	Cn1nnc(Cl)c1CC1c2ccccc2C(=O)N1CC1CC2(CNC(=O)O2)C1 (stereo not drawn) [Compound 489, 2-((1-((4-chloro-1-methyl-1H-1,2,3-triazol-5-yl)methyl)-3-oxoisoindolin-2-yl)methyl)-5-oxa-7-azaspiro[3.4]octan-6-one]	–	> 1.5
–	B (3≥B>2)	–	500 to 5000 nM	500 to 5000 nM	COc1ccc(CN2C(=O)c3ccccc3C2Cc2c(C#N)ccnc2C#N)cn1 (stereo not drawn) [Compound 598, 3-((2-((6-methoxypyridin-3-yl)methyl)-3-oxoisoindolin-1-yl)methyl)pyridine-2,4-dicarbonitrile]	–	> 1.5
–	B (3≥B>2)	–	500 to 5000 nM	< 500 nM	Cn1ncc(Cl)c1CC1c2ccccc2C(=O)N1C[C@H]1C[C@@]2(CNC(=O)O2)C1 (stereo partly drawn) [Compound 483, (2r,4r)-2-((1-((4-chloro-1-methyl-1H-pyrazol-5-yl)methyl)-3-oxoisoindolin-2-yl)methyl)-5-oxa-7-azaspiro[3.4]octan-6-one]	–	1.2 to 1.5
≥ 5000 nM	B (3≥B>2)	5000 to 50000 nM	–	–	CC1c2cc(CN3CCC3)ccc2C(=O)N1Cc1ccc2[nH]c(=O)oc2c1 (single isomer, unassigned) [Compound 274]	1.2 to 1.5	–
–	A (A>3)	–	< 500 nM	< 500 nM	Cn1ncc(Cl)c1CC1c2cc(Br)ccc2C(=O)N1Cc1ccc2[nH]c(=O)oc2c1 (stereo not drawn) [Compound 431, 6-((5-bromo-3-((4-chloro-1-methyl-1H-pyrazol-5-yl)methyl)-1-oxoisoindolin-2-yl)methyl)benzo[d]oxazol-2(3H)-one]	–	> 1.5
500 to 5000 nM	A (A>3)	500 to 5000 nM	–	–	Cc1ccc(CC2c3ccccc3C(=O)N2Cc2ccc3[nH]c(=O)oc3c2)nc1 (stereo not drawn) [Compound 161, 6-((1-((5-methylpyridin-2-yl)methyl)-3-oxoisoindolin-2-yl)methyl)benzo[d]oxazol-2(3H)-one]	> 1.5	–
–	B (3≥B>2)	–	< 500 nM	< 500 nM	COCCOc1nn(C)c(CC2c3ccccc3C(=O)N2Cc2ccc3[nH]nnc3c2)c1Cl (stereo not drawn) [Compound 371, 2-((1H-benzo[d][1,2,3]triazol-5-yl)methyl)-3-((4-chloro-3-(2-methoxyethoxy)-1-methyl-1H-pyrazol-5-yl)methyl)isoindolin-1-one]	–	> 1.5
< 500 nM	B (3≥B>2)	< 500 nM	–	–	O=C1c2ccccc2C(Cc2cnccc2Cl)N1Cc1ccc2[nH]c(=O)oc2c1 (stereo not drawn) [Compound 175, 6-((1-((4-chloropyridin-3-yl)methyl)-3-oxoisoindolin-2-yl)methyl)benzo[d]oxazol-2(3H)-one]	> 1.5	–
–	C (2≥C)	–	≥ 5000 nM	5000 to 50000 nM	Cn1ncc(Cl)c1CC1c2ccccc2C(=O)N1CC1CC2(CNC(=O)N2)C1 (stereo not drawn) [Compound 611, 3-((4-chloro-1-methyl-1H-pyrazol-5-yl)methyl)-2-((6-oxo-5,7-diazaspiro[3.4]octan-2-yl)methyl)isoindolin-1-one]	–	1.2 to 1.5
–	A (A>3)	–	< 500 nM	< 500 nM	Cn1ncc(Cl)c1CC1c2cc(CN3CCOCC3)ccc2C(=O)N1Cc1ccc2[nH]nnc2c1 (stereo not drawn) [Compound 325, 2-((1H-benzo[d][1,2,3]triazol-5-yl)methyl)-3-((4-chloro-1-methyl-1H-pyrazol-5-yl)methyl)-5-(morpholinomethyl)isoindolin-1-one]	–	> 1.5
500 to 5000 nM	C (2≥C)	500 to 5000 nM	–	–	O=C1c2cccc(Br)c2C(=O)N1Cc1ccc(O)cc1 [Compound 296, 4-bromo-2-(4-hydroxybenzyl)isoindoline-1,3-dione]	1.2 to 1.5	–
–	B (3≥B>2)	–	500 to 5000 nM	< 500 nM	COc1ccc(CN2C(=O)c3ccccc3C2Cc2c(C)ncnc2C#N)cc1 (stereo not drawn) [Compound 597, 5-((2-(4-methoxybenzyl)-3-oxoisoindolin-1-yl)methyl)-6-methylpyrimidine-4-carbonitrile]	–	> 1.5
< 500 nM	B (3≥B>2)	< 500 nM	–	–	COc1nn(C)c(CC2c3ccccc3C(=O)N2Cc2ccc3[nH]nnc3c2)c1Cl (stereo not drawn) [Compound 316, 2-((1H-benzo[d][1,2,3]triazol-5-yl)methyl)-3-((4-chloro-3-methoxy-1-methyl-1H-pyrazol-5-yl)methyl)isoindolin-1-one]	1.2 to 1.5	–
–	A (A>3)	–	500 to 5000 nM	< 500 nM	Cn1ncc(Cl)c1CC1c2ccccc2C(=O)N1Cc1ccc2c(c1)nnn2C (stereo not drawn) [Compound 557, 3-((4-chloro-1-methyl-1H-pyrazol-5-yl)methyl)-2-((1-methyl-1H-benzo[d][1,2,3]triazol-5-yl)methyl)isoindolin-1-one]	–	> 1.5
